We go through 11 compounds from US20240409585A1, “MACROCYCLIC IMMUNOMODULATORS” (priority 2021, published 2024).

Each structure is given as a SMILES string. Bridge positions count the residues as written; N and C are the ends. Square brackets hold non-standard residues; d marks the D form. Peptide text beside a SMILES is read from it. * marks the point of attachment. ξ: configuration not given here. Phe(4-(4-pyridyl)) = N[C@@H](Cc1ccc(-c2ccncc2)cc1)C(=O)O; Tyr(3-NO2) = N[C@@H](Cc1ccc(O)c([N+](=O)[O-])c1)C(=O)O; Phe(4-COOH) = N[C@@H](Cc1ccc(C(=O)O)cc1)C(=O)O; Bip = N[C@@H](Cc1ccc(-c2ccccc2)cc1)C(=O)O; Phe(3-Me) = Cc1cccc(C[C@H](N)C(=O)O)c1; Phe(4-F) = N[C@@H](Cc1ccc(F)cc1)C(=O)O; Val(3-OH) = CC(C)(O)[C@H](N)C(=O)O; 3Pal = N[C@@H](Cc1cccnc1)C(=O)O; 4Pal = N[C@@H](Cc1ccncc1)C(=O)O; Cha = N[C@@H](CC1CCCCC1)C(=O)O; Cit = NC(=O)NCCC[C@H](N)C(=O)O; Ile(3ξ) = CCC(C)[C@H](N)C(=O)O; aThr = C[C@H](O)[C@H](N)C(=O)O; Thr(3ξ) = CC(O)[C@H](N)C(=O)O; Carboxymethyl = O=C(O)C*; NMeA = CN[C@@H](C)C(=O)O; Orn = NCCC[C@H](N)C(=O)O; Dab = NCC[C@H](N)C(=O)O; ξC = NC(CS)C(=O)O

The test concerns the target T1, PE-labeled human PD-L1-Ig binding to Jurkat cell line over-expressing human PD-1 (Jurkat-PD-1) (Homo sapiens, UniProt Q15116).
T1 construct: expressed in transfected cells; host or cells: Jurkat
The experiment in a line: Jurkat-PD-1 Cell Binding High-Content Screening Assay (CBA): Method 1. The settings on record: Jurkat-hPD-1 cells, PE-labeled PD-L1-Ig 20 nM final; read-out: Jurkat HPDL1 PD1 IC50 (uM) (Method 1).

T1 sequence (Q15116 25-288): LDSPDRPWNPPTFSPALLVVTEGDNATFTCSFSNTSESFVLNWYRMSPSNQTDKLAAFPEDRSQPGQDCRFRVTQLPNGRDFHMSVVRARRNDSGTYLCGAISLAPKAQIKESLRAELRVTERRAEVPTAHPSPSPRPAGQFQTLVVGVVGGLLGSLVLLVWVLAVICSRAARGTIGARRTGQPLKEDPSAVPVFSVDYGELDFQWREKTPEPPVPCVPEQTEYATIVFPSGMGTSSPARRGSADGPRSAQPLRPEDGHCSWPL

As for `Cc1cccc(C[C@@H]2NC(=O)[C@H](CC(=O)O)NC(=O)[C@H](Cc3ccc(C(=O)O)cc3)NC(=O)[C@H](Cc3ccc(F)cc3)NC(=O)CSC[C@@H](C(=O)N[C@@H](CCN)C(N)=O)NC(=O)[C@H](CCC(=O)O)NC(=O)[C@H](C(C)(C)O)NC(=O)[C@H](CC3CCCCC3)NC(=O)[C@H](CCN)NC(=O)[C@@H](CC(C)C)NC(=O)[C@H](C)N(C)C(=O)[C@H](Cc3ccc(C(=O)O)cc3)NC(=O)[C@H](Cc3ccc(-c4ccccc4)cc3)NC(=O)[C@H](Cc3ccc(C(=O)O)cc3)NC2=O)c1` [Compound 2207] ({CH2CO}-[Phe(4-F)][Phe(4-COOH)]D[Phe(3-Me)][Phe(4-COOH)][Bip][Phe(4-COOH)][NMeA][dL][Dab][Cha][Val(3-OH)]EC[Dab]-NH2; thioether N-14), the IC50 – broadly, the concentration that inhibits the measured activity by half – was found to be 0.01 µM.

As for `CC(C)C[C@@H]1NC(=O)[C@H](Cc2c[nH]c3ccccc23)NC(=O)[C@H](CC(=O)O)NC(=O)[C@H](Cc2ccc(OCC(=O)O)cc2)NC(=O)[C@H](Cc2ccccc2)NC(=O)CSC[C@@H](C(N)=O)NC(=O)[C@H](CO)NC(=O)[C@H](C(C)C)NC(=O)[C@H](CC(C)C)NC(=O)[C@H](CC(N)=O)NC(=O)[C@@H](CC(C)C)NC(=O)[C@H](C)N(C)C(=O)[C@H](CCCNC(N)=O)NC(=O)[C@H](Cc2ccc(-c3ccccc3)cc2)NC1=O` [Compound 1627] ({CH2CO}-FY(Carboxymethyl)DWL[Bip][Cit][NMeA][dL]NLVSC-NH2; thioether N-14), the half-inhibitory concentration (IC50) stood at 0.06 µM.

For the compound `CC(C)C[C@@H]1NC(=O)[C@H](CCCNC(=N)N)NC(=O)[C@@H](CC(C)C)NC(=O)[C@H](C)N(C)C(=O)[C@H](CCCNC(=N)N)NC(=O)[C@H](Cc2ccc(-c3ccccc3)cc2)NC(=O)[C@H](C(C)C)NC(=O)[C@H](Cc2c[nH]c3ccccc23)NC(=O)[C@H](CC(=O)O)NC(=O)[C@H](Cc2ccc(O)cc2)NC(=O)[C@H](CC(N)=O)NC(=O)CSC[C@@H](C(=O)N[C@@H](C)C(N)=O)NC(=O)[C@H](CCCN)NC(=O)[C@H](C(C)C)NC1=O` [Compound 1252] ({CH2CO}-NYDWV[Bip]R[NMeA][dL]RLV[Orn]CA-NH2; thioether N-14), the concentration for half-maximal inhibition (IC50) was determined as 0.09 µM.

With `CCC(C)[C@@H]1NC(=O)[C@H](Cc2ccc(-c3ccccc3)cc2)NC(=O)[C@H](C(C)C)NC(=O)[C@H](Cc2c[nH]c3ccccc23)NC(=O)[C@H](CC(=O)O)NC(=O)[C@H](Cc2ccc(O)cc2)NC(=O)[C@H](CC(N)=O)NC(=O)CSCC(C(=O)NCC(=O)N[C@@H](CCN)C(=O)O)NC(=O)[C@H](C(C)O)NC(=O)[C@H](C(C)C)NC(=O)[C@H](CC2CCCCC2)NC(=O)[C@H](CC(N)=O)NC(=O)[C@@H](CC(C)C)NC(=O)[C@H](C)N(C)C1=O` (stereo partly drawn) [Compound 2003] ({CH2CO}-NYDWV[Bip][Ile(3ξ)][NMeA][dL]N[Cha]V[Thr(3ξ)][ξC]G[Dab]-OH; thioether N-14), the half-maximal inhibitory concentration (IC50) turned out to be 0.02 µM.

As for `CC(C)C[C@@H]1NC(=O)[C@H](CC(N)=O)NC(=O)[C@@H](CC(C)C)NC(=O)[C@H](C)N(C)C(=O)[C@H](C(C)C)NC(=O)[C@H](Cc2ccc(-c3ccccc3)cc2)NC(=O)[C@H](CCN)NC(=O)[C@H](Cc2c[nH]c3ccccc23)NC(=O)[C@H](CC(=O)O)NC(=O)[C@H](Cc2ccc(O)cc2)NC(=O)[C@H](Cc2ccccc2)NC(=O)CSC[C@@H](C(=O)N[C@@H](C)C(N)=O)NC(=O)[C@H](CO)NC(=O)[C@H](C(C)C)NC1=O` [Compound 2025] ({CH2CO}-FYDW[Dab][Bip]V[NMeA][dL]NLVSCA-NH2; thioether N-14), the half-inhibitory concentration (IC50) stood at 0.26 µM.

On to `Cc1cccc(C[C@@H]2NC(=O)[C@H](CC(=O)O)NC(=O)[C@H](Cc3ccc(OCC(=O)O)cc3)NC(=O)[C@H](Cc3ccc(OCC(=O)O)cc3)NC(=O)CSC[C@@H](C(=O)N[C@@H](C)C(N)=O)NC(=O)[C@H]([C@H](C)O)NC(=O)[C@H](C(C)C)NC(=O)[C@H](CC(C)C)NC(=O)[C@H](CCN)NC(=O)[C@@H](CC(C)C)NC(=O)[C@H](C)N(C)C(=O)[C@H](C(C)C)NC(=O)[C@H](Cc3ccc(-c4ccccc4)cc3)NC(=O)[C@H](C(C)C)NC2=O)c1` [Compound 1578] ({CH2CO}-Y(Carboxymethyl)Y(Carboxymethyl)D[Phe(3-Me)]V[Bip]V[NMeA][dL][Dab]LV[aThr]CA-NH2; thioether N-14), for which the IC50 is 0.01 µM.

With `CC(C)C[C@@H]1NC(=O)[C@H](CCN)NC(=O)[C@@H](CC(C)C)NC(=O)[C@H](C)N(C)C(=O)[C@H](CCCNC(=N)N)NC(=O)[C@H](Cc2ccc(-c3ccccc3)cc2)NC(=O)[C@H](C(C)C)NC(=O)[C@H](Cc2c[nH]c3ccccc23)NC(=O)[C@H](CC(=O)O)NC(=O)[C@H](Cc2ccc(O)c([N+](=O)[O-])c2)NC(=O)[C@H](Cc2cccnc2)NC(=O)CSC[C@@H](C(=O)N[C@@H](C)C(N)=O)NC(=O)[C@H]([C@@H](C)O)NC(=O)[C@H](C(C)C)NC1=O` [Compound 1155] ({CH2CO}-[3Pal][Tyr(3-NO2)]DWV[Bip]R[NMeA][dL][Dab]LVTCA-NH2; thioether N-14), the 50% inhibitory concentration (IC50) stood at 0.02 µM.

As for `CC(C)C[C@@H]1NC(=O)[C@H](Cc2c[nH]c3ccccc23)NC(=O)[C@H](CC(=O)O)NC(=O)[C@H](Cc2ccncc2)NC(=O)[C@H](Cc2ccc(OCC(=O)O)cc2)NC(=O)CSC[C@@H](C(=O)N[C@@H](CC(N)=O)C(N)=O)NC(=O)[C@H]([C@@H](C)O)NC(=O)[C@H](C(C)C)NC(=O)[C@H](CC2CCCCC2)NC(=O)[C@H](CCN)NC(=O)[C@@H](CC(C)C)NC(=O)[C@H](C)N(C)C(=O)[C@H](C(C)C)NC(=O)[C@H](Cc2ccc(-c3ccccc3)cc2)NC1=O` [Compound 1902] ({CH2CO}-Y(Carboxymethyl)[4Pal]DWL[Bip]V[NMeA][dL][Dab][Cha]VTCN-NH2; thioether N-14), the IC50 turned out to be 0.01 µM.

In the case of `CCC(C)[C@@H]1NC(=O)[C@H](Cc2ccc(-c3ccccc3)cc2)NC(=O)[C@H](C(C)C)NC(=O)[C@H](Cc2c[nH]c3ccccc23)NC(=O)[C@H](CC(=O)O)NC(=O)[C@H](Cc2ccc(OCC(=O)O)cc2)NC(=O)[C@H](C(C)O)NC(=O)CSC[C@@H](C(=O)N[C@@H](CCCN)C(N)=O)NC(=O)[C@H](C(C)O)NC(=O)[C@H](C(C)C)NC(=O)[C@H](CC2CCCCC2)NC(=O)[C@H](CCN)NC(=O)[C@@H](CC(C)C)NC(=O)[C@H](C)N(C)C1=O` (stereo partly drawn) [Compound 2153] ({CH2CO}-[Thr(3ξ)]Y(Carboxymethyl)DWV[Bip][Ile(3ξ)][NMeA][dL][Dab][Cha]V[Thr(3ξ)]C[Orn]-NH2; thioether N-14), the IC50 amounted to 0.02 µM.

Consider `CC(C)C[C@@H]1NC(=O)[C@H](CCCNC(=N)N)NC(=O)[C@@H](CC(C)C)NC(=O)[C@H](C)N(C)C(=O)[C@H](CCCNC(=N)N)NC(=O)[C@H](Cc2ccc(-c3ccncc3)cc2)NC(=O)[C@H](C(C)C)NC(=O)[C@H](Cc2c[nH]c3ccccc23)NC(=O)[C@H](CC(=O)O)NC(=O)[C@H](Cc2ccc(O)cc2)NC(=O)[C@H](Cc2ccccc2)NC(=O)CSC[C@@H](C(=O)N[C@@H](C)C(N)=O)NC(=O)[C@H]([C@@H](C)O)NC(=O)[C@H](C(C)C)NC1=O` [Compound 1078] ({CH2CO}-FYDWV[Phe(4-(4-pyridyl))]R[NMeA][dL]RLVTCA-NH2; thioether N-14), for which the IC50 was determined as 0.48 µM.

With `CC(C)C[C@@H]1NC(=O)[C@H](Cc2c[nH]c3ccccc23)NC(=O)[C@H](CC(=O)O)NC(=O)[C@H](Cc2ccc(O)cc2)NC(=O)[C@H](Cc2ccccc2)NC(=O)CSC[C@@H](C(=O)NCC(N)=O)NC(=O)[C@H](CO)NC(=O)[C@H](C(C)C)NC(=O)[C@H](CC(C)C)NC(=O)[C@H](CC(N)=O)NC(=O)CNC(=O)[C@H](C)N(C)C(=O)[C@H](C(C)C)NC(=O)[C@H](Cc2ccc(-c3ccccc3)cc2)NC1=O` [Compound 1757] ({CH2CO}-FYDWL[Bip]V[NMeA]GNLVSCG-NH2; thioether N-14), the half-inhibitory concentration (IC50) is 0.03 µM.
